Assay results as given in US6740678B2, “Method of treatment of cardiovascular injuries” (Children's Medical Center Corporation, priority 1998, dated 2004).

Tests used:
[1] = system: Apo E-/-mice; assay: Plaque area at the aortic origin in cholesterol-fed Apo E-/- mice; assay type: in vivo; conditions: for Plaque measurements at the aortic origin versus control: early-stage experiment, treated age 6 to 22 weeks, not shown; for Inhibition of plaque growth: age 20 to 36 weeks, [100][1-(median treated-0.25)/(median control-0.25)]
Description: Male Apo E-/-mice (Jackson Labs, Bangor Me.) were fed a 0.15% cholesterol diet (Western Type #88137, Teklad) from age 6-8 weeks. At 20 weeks of age, ten animals were sacrificed to evaluate the baseline extent of atherosclerosis.
(§1) After 16 weeks of treatment, animals were euthanized with methoxyflurane. A blood sample was obtained from the right ventricle for the analysis of serum cholesterol, performed by an automated calorimetric assay on a Hitachi 917 instrument (Children's Hospital, Boston, Mass.). The heart and aorta were perfusion-fixed with 2% paraformaldehyde and dissected as described (Palinski, W., et al., Arterioscler. Thromb. 14: 605-16, 1994; Tangirala, R. K., et al., J. Lipid Res. 36:2320-8, 1995). Atherosclerotic plaques in the aortas were used for histology and plaque areas were only determined at the aortic origin (Paigen, B., et al., Artherosclerosis 68: 231-40, 1987). However, to document the extent of disease in the total aorta, the unopened aortas were photographed.
(§2) The effects of these angiogenesis inhibitors on late stage lesions were then compared to their effects on early lesions, in which intimal vessels were rarely observed. Animals were treated with endostatin or TNP-470 from age 32 to 48 weeks (late-stage experiment) or from 6 to 22 weeks (early-stage experiment). Plaque involvement was measured at the aortic origin. Since the aortas from early stage animals were not used for immunohistochemistry in these experiments, the extent of atherosclerosis was also measured in the entire aorta (percent surface area of Sudan IV stained-lesions; Paliniski, W., et al., Arteriosclr. Thromb. 14: 605-16, 1994).
(§3) The Apo E-/-mice received 20 mg/kg of endostatin subcutaneously every day.
The fumagillin analogue TNP-470 was provided for these studies by TAP Holdings, Deerfield Ill. An injection solution of TNP-470 (3 mg/ml) was freshly prepared and mice received 30 mg/kg subcutaneously every other day. Control animals received a similar volume of saline or endostatin buffer.
(§4) Plaque Area. To determine the extent of atherosclerosis at the aortic origin, 40 serial sections (8-10 Tm thickness) of the aortic sinus were collected on 10 slides (Paigen, B., et al., Artherosclerosis 68: 231-40, 1987). Every second slide was stained with hematoxylin and eosin for morphometry. The rest were used for immunohistochemistry to count intimal vessels and determine intimal smooth muscle cell contents. Plaque images were captured at 100× magnification with a Hitachi HV-C20 3CCD digital camera and measured with the Leica Q500MC image analysis program (Dong, Z. M., et al., J. Clin. Invest. 102: 145-52, 1998). Lesion area for each animal was reported as the mean intimal cross-sectional area (mm^2). In the early-stage experiment, plaque involvement in the entire aorta was also measured by image analysis as the percentage of aortic surface area covered with lesions (Tangiala, R. K., et al., J. Lipid. Res. 36: 2320-8, 1995; Dong, Z. M., et al., J. Clin. Invest. 102: 145-52, 1998)

[2] = Animal health, weight and tolerability during treatment; assay type: in vivo, mice
Protocol: Animal health and weight was monitored throughout treatment.
as §3

[3] = system: Apo E-/-mice; assay: Extent of atherosclerosis in the entire aorta (Sudan IV stained lesions, photographed aortas); assay type: in vivo; conditions: for Median percent plaque area of the entire aorta (Sudan IV-positive lesions): early-stage experiment, treated age 6 to 22 weeks, control 14.4%; for Plaque surface area on photographed images of the entire aorta: treated 20 to 36 weeks, not shown
Description: as §1, §2, §4

[4] = system: Apo E-/-mice; assay: Intimal vessels in aortic sinus plaques by immunohistochemistry (CD31, vWf); assay type: in vivo; conditions: for Neovascularization (+) aortic sinus plaques (number): of 22 (endostatin) and 27 (TNP-470) plaques, control 7 of 24; for Percentage of aortic sinus plaques that contained any intimal vessels: treated mice, control 29%
Protocol: To detect intimal capillaries, the hearts and portions of the descending aorta with substantial lesions were embedded in paraffin, sectioned (10 μm), digested with 0.02% protease XXIV (Sigma) for 6 minutes at room temperature, and incubated with rabbit polyclonal anti-human vWf antibody (Dako, Carpinteria, Calif., 1:500 dilution) or rat monoclonal anti-mouse CD31 antibody (Pharmigen, San Diego, Calif., 20 Tg/ml). When acetone-fixed frozen sections were stained, the CD31 antibody was used at 5 Tg/ml. The bound antibodies against vWf or CD31 were detected with biotinylated goat anti-rabbit or rabbit anti-rat (mouse absorbed) antibodies (Vector, Burlinghame, Calif., 1:250 dilution) and the avidin-biotin peroxidase complex (ABC standard kit, Vector). A red reaction product was produced with 3-amino-9-ethyl carbazole substrate (AEC, Dako) and sections were counterstained with Gill's hematoxylin (Sigma). Vascular sections incubated with non-immune serum served as negative controls. Positive staining of the endothelium on the lumen and in adventitial capillaries served as an internal control. Intimal vessels were identified under high power (400×) and counted when both an endothelial cell nucleus and lumen were seen and when the vessel was also observed in an adjacent section.
as §4

[5] = system: Apo E-/-mice; assay: Intimal smooth muscle cell content of aortic sinus lesions; assay type: in vivo; conditions: median (range), control 20.4
Protocol: Smooth muscle cells were identified with a monoclonal IgG2a antibody against human smooth muscle cell I actin (Dako, M0851; Nakashima, Y., et al, Arteriocler. Thromb. 14: 133-40, 1994). Sections were immersed in 0.1 M sodium citrate, pH 6.0 and heated for 10 minutes in the microwave. Primary antibody was bound to sections at 3 Tg/ml and then visualized with biotinylated anti-mouse IgG2a antibody (1:200 dilution, Amersham RPN1181) and the ABC method described above. The adjacent medial layer of vessels served as positive control.
Intimal smooth muscle cell content. To determine if angiogenesis inhibitor treatments affected smooth muscle cell migration or proliferation in lesions, two slides from the middle of the aortic sinus were stained for smooth muscle cell α actin. For each animal, the number of intimal smooth muscle cells and total cell nuclei were counted in 8 non-overlapping fields. A smooth muscle cell was counted only if it stained for smooth muscle cell α actin and its cell nucleus was seen. The mean percentage of smooth muscle cells relative to total cells was determined for each animal.

[6] = system: Apo E-/-mice; assay: Plaque cell density of aortic sinus lesions; assay type: in vivo; conditions: aortic sinus plaques, median (range), control 1183
Protocol: Plaque cell density. Cell densities in aortic sinus plaques were evaluated to determine if endostatin or TNP-470 treatments affected lesion cellularity. Cell nuclei in the intima of the aortic sinus plaques were counted at three mid-lesion levels (slides 4, 6, and 8). Cell density was reported as the number of cells per intimal area (cells/mm^2).

[7] = system: primary tumor growth; conditions: 20 mg/kg per day s.c.; Boehm 1997; cited from earlier work
[8] = system: angiogenesis; conditions: corneal micropocket assay; Ingber 1990; cited from earlier work
[9] = first experiment, treated age 20 to 36 weeks, endostatin 20 mg/kg s.c. daily, TNP-470 30 mg/kg s.c. every other day, control 0.751, baseline 0.250
[10] = late-stage experiment, treated age 32 to 48 weeks, control 0.584
[11] = second experiment, treated 20 to 36 weeks, control 0.690

Substance	Plaque measurements at the aortic origin versus control [1]	Inhibition of plaque growth ([1]; first experiment) [%]	Median plaque area at the aortic origin [1, 9] [mm^2]	Median plaque area at the aortic origin [1, 10] [mm^2]	Median plaque area at the aortic origin [1, 11] [mm^2]	Median percent plaque area of the entire aorta (Sudan IV-positive lesions) [3] [%]	Plaque surface area on photographed images of the entire aorta [3]	Neovascularization (+) aortic sinus plaques (number) [4]	Percentage of aortic sinus plaques that contained any intimal vessels [4] [%]	SMC (%), median smooth muscle cell content of aortic sinus lesions [5]	other results
endostatin	no difference	85	0.321	0.422	0.475	9.6	noticeable reduction	1	5	19.4%	Tolerability of injections ([2]; 20 mg/kg s.c. every day): tolerated the injections; Percentage of animals available for analysis ([2]; mouse, in vivo): 92%; SMC (%), median smooth muscle cell content of aortic sinus lesions ([5]; listed as Endostatin): 19.4 (16.2-22.7) %; Cell Density, median [6]: 1645 cells/mm^2; Cell Density, median ([6]; listed as Endostatin): 1646 (962-2361) cells/mm^2; Inhibition of primary tumor growth [7]: over 95%
O-chloracetyl-carbamoylfumagillol [TNP-470]	no difference	70	0.402	0.448	0.370	11.7	noticeable reduction	0	0	19.8 (14.6-23.5) %	Percentage of animals available for analysis ([2]; all studies, control 91%): 89%; Weight gained during treatment ([2]; treated age 20 to 36 weeks, control 8 g): 4 g; Median weight after treatment ([2]; treated age 20 to 36 weeks, control 35 g): 31 g; Final weight ([2]; treated age 32 to 48 weeks, control 35 g): 33 g; Inhibition of angiogenesis [8]: 70%
